Measurements taken from US7384935B2 (Thallion Pharmaceuticals, Inc., priority 2005, dated 2008).
Where two headings read alike, the source gives them in different places.

Key:
[1] = system: HT-29, SF268, MDA-MB-231 and PC-3; assay: In vitro cytotoxic activity, four cell lines together (average / overall statement); settings: for GI50: read-out: In vitro Cytotoxic Activities GI50, Average; for exhibited in vitro anticancer activity at 30 μM: four cell lines
[2] = system: HT-29 (colorectal carcinoma); assay: In vitro cytotoxic activity (GI50), propidium iodide dye indicator; settings: read-out: In vitro Cytotoxic Activities GI50, HT-29
SF268 (CNS) = assay: as above; format: cell-based; settings: SF-268, 96 hrs incubation, read-out: In vitro Cytotoxic Activities GI50, SF-268
Source text: (§1) Procedure used for the tests is described below.

[3] = system: MDA-MB-231 (mammary gland adenocarcinoma); assay: as above; format: cell-based; settings: MDA-MB-231, 96 hrs incubation, read-out: In vitro Cytotoxic Activities GI50, MDA-MB-231
Source text: as §1

[4] = system: PC-3 (prostate adenocarcinoma); assay: as above; format: cell-based; settings: PC-3, 96 hrs incubation; read-out: In vitro Cytotoxic Activities GI50, PC-3
Source text: as §1

in vivo = settings: Sprague-Dawley, rat, plasma, iv, 30 mg/kg
Method: Each blood sample (approximately 0.5 mL) was collected into microtainer tubes containing anticoagulant K2EDTA. The samples were centrifuged at a temperature ranging from about 2 to about 8° C. for 10 minutes at 1500 g (RCF). A volume of 25 μL of 4% w/v L-aqueous acid was added to a volume of 225 μL of rat plasma in a clean tube, and the samples were mixed by inversion.
LOQ and LOD values were determined according to the concentration range used in the experiment, using a MDS Sciex API 2000™ Q-Trap™. Mean concentration values and standard deviation (SD) were calculated at each timepoints of the pharmacokinetic study (n=3 animals/timepoint).
Blood was collected, centrifuged and analyzed as above.

[5] = Conversion to Compound 1 by rat liver homogenate; format: in vitro ADME, Sprague Dawley rats; settings: 37° C.
Method: The aim of this test was to determine if the phosphate prodrugs were cleaved by phosphatases present in the liver.
Rat liver (3 g from Sprague Dawley rats) was weighed into a centrifuge tube and 12 mL of Buffer A was added, representing a 1:4 tissue/buffer ratio, which were homogenized for at least 30 seconds at ambient temperature.
Stock solutions of test article, control and internal standards were prepared as shown in Table 8 by diluting the compound in the appropriate solvent.
Liver homogenate (180 μL) was transferred into Eppendorf™ tubes (polypropylene, size 1.8 mL). Tubes for Blank, 0 min, 30 min, 1 h, 2 h, 3 h, 4 h and 5 h for each concentration of compound to be tested. Blank tubes were prepared by adding 200 μL of homogenate per tube.
Immediately after vortexing, the 0 min samples (for calibration) were extracted with extraction Methods A and B (see below). The remaining tubes were incubated at 37° C. for the prescribed length of time.
The mixture was allowed to stand for 10 minutes at room temperature. It was then centrifuged at 13000 RPM for 5 minutes at 4° C. The supernatant was tested by LC-MS/MS (Method B).
A volume of 800 μL of acetonitrile containing IS 200 ng/mL (Stock F) was added to the homogenate and the mixture vortexed for 30 sec. The mixture was allowed to stand at room temperature for 10 minutes, and was centrifuged at 13000 RPM for 5 minutes at 4° C. The supernatant was tested by LC-MS/MS (Method A).
Both LC methods were accomplished using the same HPLC system (Agilent Technologies 1100 with Binary pump and autosampler, and an Agilent 1100 Autosampler needle wash to avoid contamination of the needle. Both MS/MS method were done using a MDS Sciex™ MS system under positive electrospray ionization.
Multiple Reaction Monitoring (MRM) was used as scan type in Method A MS/MS.
LC Method B (long method) was done using 20 μL of test solution on a Waters Symmetry™ C-18, 3.5μ (3.0×100 mm id) and a divert pump flow rate of 1.0 ml/min using the conditions described in Table 10.
Enhanced Product Ion (EPI) was used as scan type in Method B MS/MS.

[6] = average of HT-29, SF-268, PC-3, MDA-MB-231

| Compound | GI50 [1, 6] | GI50 ([2]; HT-29, 96 hrs incubation) | GI50 (SF268 (CNS)) | GI50 [3] | GI50 [4] | solubility (physchem) | exhibited in vitro anticancer activity at 30 μM [1] | GI50 [1] | GI50 ([2]; Homo sapiens, HT-29, 96 h) | GI50 (SF268 (CNS); Homo sapiens) | GI50 ([3]; Homo sapiens) | other results |
| --- | --- | --- | --- | --- | --- | --- | --- | --- | --- | --- | --- | --- |
| CC(=O)Oc1cccc2c1Nc1c(OC(C)=O)cc(O)cc1N(C/C=C(\C)CC/C=C(\C)CCC=C(C)C)C2=O [B, reference compound] | 4.6 µM | 12.6 µM | 1.88 µM | 2.48 µM | 1.44 µM |  |  |  |  |  |  |  |
| CC(C)=CCC/C(C)=C/CC/C(C)=C/CN1C(=O)c2cccc(O)c2Nc2c(OP(=O)(O)O)cc(O)cc21.N.N [Compound 21 (NH4^+)2, 4,8-dihydroxy-10-farnesyl-6-phosphonooxy-5,10-dihydro-dibenzo[b,e][1,4]diazepin-11-one diammonium salt] |  |  |  |  | > 30 µM | 5 mg/mL | None | > 30 µM | > 30 µM | > 30 µM | > 30 µM |  |
| CC(=O)Oc1cc(OC(C)=O)c2c(c1)N(C/C=C(\C)CC/C=C(\C)CCC=C(C)C)C(=O)c1cccc(OC(C)=O)c1N2 [A, reference compound] | 3.82 µM | 9.33 µM | 1.95 µM | 2.79 µM | 1.2 µM |  |  |  |  |  |  |  |
| CC(C)=CCC/C(C)=C/CC/C(C)=C/CN1C(=O)c2cccc(O)c2Nc2c(O)cc(O)cc21 [Compound 1, 10-farnesyl4,6,8-trihydroxy-5,10-dihydrodibenzo[b,e][1,4]diazepin-11-one] |  |  |  |  |  |  |  |  |  |  |  | AUC (in vivo): 70200 ng·h/mL |
| CC(C)=CCCC(C)=CCCC(C)=CCN1C(=O)c2cccc(OP(=O)(O)OCc3ccccc3)c2Nc2c(OP(=O)(O)OCc3ccccc3)cc(OP(=O)(O)OCc3ccccc3)cc21.N.N.N [Compound 9 (NH4^+)3, 10-farnesyl-4,6,8-tri(benzyloxyhydroxyphosphoryloxy)-5,10-dihydro-dibenzo[b,e][1,4]diazepin-11-one triammonium salt] |  |  |  |  | > 30 µM | > 40 mg/mL | None | > 30 µM | > 30 µM | > 30 µM | > 30 µM | Concentration of Compound 9 (remaining prodrug) vs Time of Incubation ([5]; initial conc. 5 μg/mL in homogenate, 0 min): 1840 ng/mL; Concentration of Compound 9 (remaining prodrug) vs Time of Incubation ([5]; initial conc. 5 μg/mL in homogenate, 0.5 h): 2040 ng/mL; Concentration of Compound 9 (remaining prodrug) vs Time of Incubation ([5]; initial conc. 5 μg/mL in homogenate, 1 h): 2570 ng/mL; Concentration of Compound 9 (remaining prodrug) vs Time of Incubation ([5]; initial conc. 5 μg/mL in homogenate, 2 h): 856 ng/mL; Concentration of Compound 9 (remaining prodrug) vs Time of Incubation ([5]; initial conc. 5 μg/mL in homogenate, 3 h): 544 ng/mL; Concentration of Compound 9 (remaining prodrug) vs Time of Incubation ([5]; initial conc. 5 μg/mL in homogenate, 4 h): <LOD; Concentration of Compound 9 (remaining prodrug) vs Time of Incubation ([5]; initial conc. 5 μg/mL in homogenate, 5 h): <LOD; Concentration of Compound 9 (remaining prodrug) vs Time of Incubation ([5]; initial conc. 20 μg/mL in homogenate, 0 min): 13300 ng/mL; Concentration of Compound 9 (remaining prodrug) vs Time of Incubation ([5]; initial conc. 20 μg/mL in homogenate, 0.5 h): 14600 ng/mL; Concentration of Compound 9 (remaining prodrug) vs Time of Incubation ([5]; initial conc. 20 μg/mL in homogenate, 1 h): 9030 ng/mL; Concentration of Compound 9 (remaining prodrug) vs Time of Incubation ([5]; initial conc. 20 μg/mL in homogenate, 2 h): 2970 ng/mL; Concentration of Compound 9 (remaining prodrug) vs Time of Incubation ([5]; initial conc. 20 μg/mL in homogenate, 3 h): 1530 ng/mL; Concentration of Compound 9 (remaining prodrug) vs Time of Incubation ([5]; initial conc. 20 μg/mL in homogenate, 4 h): 1080 ng/mL; Concentration of Compound 9 (remaining prodrug) vs Time of Incubation ([5]; initial conc. 20 μg/mL in homogenate, 5 h): 948 ng/mL |
| CC(=O)Oc1cc(OC(C)=O)c2c(c1)N(C/C=C(\C)CC/C=C(\C)CCC=C(C)C)C(=O)c1cccc(O)c1N2 [D, reference compound] | 4.48 µM | 13 µM | 2.02 µM | 1.55 µM | 1.35 µM |  |  |  |  |  |  |  |
| CC(C)=CCC/C(C)=C/CC/C(C)=C/CN1C(=O)c2cccc(OP(=O)(O)O)c2Nc2c(OP(=O)(O)O)cc(OP(=O)(O)O)cc21 [Compound 16] |  |  |  |  | > 30 µM | > 40 mg/mL | None | > 30 µM | > 30 µM | > 30 µM | > 30 µM |  |
| CC(=O)Oc1cc(O)c2c(c1)N(C/C=C(\C)CC/C=C(\C)CCC=C(C)C)C(=O)c1cccc(OC(C)=O)c1N2 [C, reference compound] | 8.72 µM | 16 µM | 5.79 µM | 7.72 µM | 5.35 µM |  |  |  |  |  |  |  |
| CC(C)=CCC/C(C)=C/CC/C(C)=C/CN1C(=O)c2cccc(OP(=O)(OCc3ccccc3)OCc3ccccc3)c2Nc2c(OP(=O)(OCc3ccccc3)OCc3ccccc3)cc(OP(=O)(OCc3ccccc3)OCc3ccccc3)cc21 [Compound 2, 10-farnesyl-4,6,8-tri(bisbenzyloxyphosphoryloxy)-5,10-dihydro-dibenzo[b,e][1,4]diazepin-11-one] |  |  |  |  | > 30 µM |  | None | > 30 µM | > 30 µM | > 30 µM | > 30 µM |  |
